# Patent US10710978B2, “STK4 inhibitors for treatment of hematologic malignancies” (Dana-Farber Cancer Institute, Inc., priority 2015, dated 2020)
# Read-outs that look alike come from different tables or passages of the source.
# Assays:
# STK3 (MST2) = STK3 (MST2) (Homo sapiens (Human), UniProt Q13188); experiment: Z-lyte biochemical IC50 assay (Invitrogen); conditions: ATP concentration matched the Km
# BRAF = BRAF (Homo sapiens (Human), UniProt P15056); experiment: KiNativ assay; assay type: binding; conditions: H929 live cell
# Method: (§1) Biochemical IC50s of the compounds of the present disclosure against various kinases were measured in a KiNativ assay. Compounds were screened in duplicate at 10 μM in H929 live cell. IC50 was measured via Mass spectroscopy (MS).
# CDC2 = CDC2 (Homo sapiens (Human), UniProt P06493); experiment: KiNativ assay; assay type: binding; conditions: H929 live cell
# Method: as §1
# CaMK2g = CaMK2g (Homo sapiens (Human), UniProt Q13555); experiment: KiNativ assay; assay type: binding; conditions: H929 live cell
# Method: as §1
# FER = FER (Homo sapiens (Human), UniProt P16591); experiment: KiNativ assay; assay type: binding; conditions: H929 live cell
# Method: as §1
# JAK3 domain2 = JAK3 domain2 (Homo sapiens (Human), UniProt P52333); experiment: KiNativ assay; assay type: binding; conditions: H929 live cell
# Method: as §1
# LKB1 = LKB1 (Homo sapiens (Human), UniProt Q15831); experiment: KiNativ assay; assay type: binding; conditions: H929 live cell
# Method: as §1
# MAP2K4 = MAP2K4 (Homo sapiens (Human), UniProt P45985); experiment: KiNativ assay; assay type: binding; conditions: H929 live cell
# Method: as §1
# MAP2K5 = MAP2K5 (Homo sapiens (Human), UniProt Q13163); experiment: KiNativ assay; assay type: binding; conditions: H929 live cell
# Method: as §1
# MAP3K2, MAP3K3 = experiment: KiNativ assay; assay type: binding; conditions: H929 live cell; for % inhibition (range): 10 μM
# Method: as §1
# MAP3K5 = MAP3K5 (Homo sapiens (Human), UniProt Q99683); experiment: KiNativ assay; assay type: binding; conditions: H929 live cell
# Method: as §1
# MARK4 = MARK4 (Homo sapiens (Human), UniProt Q96L34); experiment: KiNativ assay; assay type: binding; conditions: H929 live cell
# Method: as §1
# MLKL = MLKL (Homo sapiens (Human), UniProt Q8NB16); experiment: KiNativ assay; assay type: binding; conditions: H929 live cell
# Method: as §1
# MSK1 domain1 = MSK1 domain1 (Homo sapiens (Human), UniProt O75582); experiment: KiNativ assay; assay type: binding; conditions: H929 live cell
# Method: as §1
# MST4, YSK1 = experiment: KiNativ assay; assay type: binding; conditions: H929 live cell; for % inhibition (range): 10 μM
# Method: as §1
# NEK6, NEK7 = experiment: KiNativ assay; assay type: binding; conditions: H929 live cell; for % inhibition (range): 10 μM
# Method: as §1
# PI4KA, PI4KAP2 = experiment: KiNativ assay; assay type: binding; conditions: H929 live cell; for % inhibition (range): 10 μM
# Method: as §1
# PKN1 = PKN1 (Homo sapiens (Human), UniProt Q16512); experiment: KiNativ assay; assay type: binding; conditions: H929 live cell
# Method: as §1
# PKR = PKR (Homo sapiens (Human), UniProt P19525); experiment: KiNativ assay; assay type: binding; conditions: H929 live cell
# Method: as §1
# SLK = SLK (Homo sapiens (Human), UniProt Q9H2G2); experiment: KiNativ assay; assay type: binding; conditions: H929 live cell
# Method: as §1
# SRPK1 = SRPK1 (Homo sapiens (Human), UniProt Q96SB4); experiment: KiNativ assay; assay type: binding; conditions: H929 live cell
# Method: as §1
# STLK3 = STLK3 (Homo sapiens (Human), UniProt Q9UEW8); experiment: KiNativ assay; assay type: binding; conditions: H929 live cell
# Method: as §1
# ULK1 = ULK1 (Homo sapiens (Human), UniProt O75385); experiment: KiNativ assay; assay type: binding; conditions: H929 live cell
# Method: as §1
# ZAK = ZAK (Homo sapiens (Human), UniProt Q9NYL2); experiment: KiNativ assay; assay type: binding; conditions: H929 live cell
# Method: as §1
# SLK, sequence (Q9H2G2 whole entry): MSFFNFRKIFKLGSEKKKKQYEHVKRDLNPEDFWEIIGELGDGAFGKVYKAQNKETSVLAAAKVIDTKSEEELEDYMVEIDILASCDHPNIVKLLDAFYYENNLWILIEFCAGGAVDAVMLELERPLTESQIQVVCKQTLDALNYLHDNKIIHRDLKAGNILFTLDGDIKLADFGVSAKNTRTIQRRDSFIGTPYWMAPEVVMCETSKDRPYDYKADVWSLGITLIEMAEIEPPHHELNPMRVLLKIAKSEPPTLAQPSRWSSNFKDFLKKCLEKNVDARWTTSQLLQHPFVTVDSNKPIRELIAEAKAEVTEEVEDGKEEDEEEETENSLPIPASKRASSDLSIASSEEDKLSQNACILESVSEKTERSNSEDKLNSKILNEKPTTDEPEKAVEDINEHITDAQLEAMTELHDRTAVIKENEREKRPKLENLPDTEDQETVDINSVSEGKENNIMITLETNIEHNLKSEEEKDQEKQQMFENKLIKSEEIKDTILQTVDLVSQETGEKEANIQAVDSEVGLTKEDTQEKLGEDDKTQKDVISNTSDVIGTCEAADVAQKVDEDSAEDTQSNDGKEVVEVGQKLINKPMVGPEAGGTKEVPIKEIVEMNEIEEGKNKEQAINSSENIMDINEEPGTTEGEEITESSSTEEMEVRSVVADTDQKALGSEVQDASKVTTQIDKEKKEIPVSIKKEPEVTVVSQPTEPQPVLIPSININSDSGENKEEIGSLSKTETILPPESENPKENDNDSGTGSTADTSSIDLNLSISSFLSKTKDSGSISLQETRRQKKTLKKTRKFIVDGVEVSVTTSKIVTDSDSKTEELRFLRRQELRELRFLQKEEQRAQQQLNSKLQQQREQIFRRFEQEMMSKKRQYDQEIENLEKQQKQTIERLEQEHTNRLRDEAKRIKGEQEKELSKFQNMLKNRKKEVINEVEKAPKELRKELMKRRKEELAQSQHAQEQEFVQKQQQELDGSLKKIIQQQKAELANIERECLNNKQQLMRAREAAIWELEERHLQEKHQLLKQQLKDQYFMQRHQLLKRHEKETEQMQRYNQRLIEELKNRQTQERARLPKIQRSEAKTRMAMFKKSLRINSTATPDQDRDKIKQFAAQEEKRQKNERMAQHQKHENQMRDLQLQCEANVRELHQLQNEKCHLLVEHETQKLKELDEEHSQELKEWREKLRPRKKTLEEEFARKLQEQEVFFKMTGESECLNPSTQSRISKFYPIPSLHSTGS
# ZAK, sequence (Q9NYL2 whole entry): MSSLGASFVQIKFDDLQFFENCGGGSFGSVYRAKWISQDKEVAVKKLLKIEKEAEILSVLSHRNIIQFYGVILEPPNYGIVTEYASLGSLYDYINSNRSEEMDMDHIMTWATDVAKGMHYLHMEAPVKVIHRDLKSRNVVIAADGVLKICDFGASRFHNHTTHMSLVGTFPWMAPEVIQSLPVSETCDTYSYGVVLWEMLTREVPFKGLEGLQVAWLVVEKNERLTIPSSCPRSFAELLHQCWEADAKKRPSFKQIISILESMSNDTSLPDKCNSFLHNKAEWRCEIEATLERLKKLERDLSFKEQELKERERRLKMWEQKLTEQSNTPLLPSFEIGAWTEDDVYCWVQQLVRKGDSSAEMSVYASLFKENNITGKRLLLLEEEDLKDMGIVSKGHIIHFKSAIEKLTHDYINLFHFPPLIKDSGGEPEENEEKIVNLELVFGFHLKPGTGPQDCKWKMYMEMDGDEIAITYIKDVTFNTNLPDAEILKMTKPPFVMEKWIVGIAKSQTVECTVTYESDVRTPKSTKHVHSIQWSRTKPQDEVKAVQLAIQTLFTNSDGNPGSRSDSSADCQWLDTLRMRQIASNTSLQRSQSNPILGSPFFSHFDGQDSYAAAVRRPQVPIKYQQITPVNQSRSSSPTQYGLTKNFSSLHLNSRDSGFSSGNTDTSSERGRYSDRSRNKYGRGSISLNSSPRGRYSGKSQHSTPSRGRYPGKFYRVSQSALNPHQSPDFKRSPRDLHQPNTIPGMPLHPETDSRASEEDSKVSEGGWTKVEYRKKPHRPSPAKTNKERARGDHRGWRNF
# CaMK2g, sequence (Q13555 whole entry): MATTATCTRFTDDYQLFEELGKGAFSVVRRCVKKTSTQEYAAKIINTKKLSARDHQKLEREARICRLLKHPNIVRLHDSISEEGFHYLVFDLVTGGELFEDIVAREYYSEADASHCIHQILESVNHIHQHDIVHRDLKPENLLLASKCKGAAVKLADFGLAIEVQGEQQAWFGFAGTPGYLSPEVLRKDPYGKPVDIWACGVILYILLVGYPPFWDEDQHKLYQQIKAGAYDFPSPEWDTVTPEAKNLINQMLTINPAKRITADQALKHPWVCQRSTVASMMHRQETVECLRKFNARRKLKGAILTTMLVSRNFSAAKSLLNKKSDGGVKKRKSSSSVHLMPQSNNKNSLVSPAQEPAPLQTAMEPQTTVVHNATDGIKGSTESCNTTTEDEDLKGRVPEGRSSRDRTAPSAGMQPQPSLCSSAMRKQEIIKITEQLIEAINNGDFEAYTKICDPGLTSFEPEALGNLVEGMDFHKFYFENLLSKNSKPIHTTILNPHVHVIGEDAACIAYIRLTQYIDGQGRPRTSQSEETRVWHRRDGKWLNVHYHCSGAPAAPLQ
# BRAF, sequence (P15056 whole entry): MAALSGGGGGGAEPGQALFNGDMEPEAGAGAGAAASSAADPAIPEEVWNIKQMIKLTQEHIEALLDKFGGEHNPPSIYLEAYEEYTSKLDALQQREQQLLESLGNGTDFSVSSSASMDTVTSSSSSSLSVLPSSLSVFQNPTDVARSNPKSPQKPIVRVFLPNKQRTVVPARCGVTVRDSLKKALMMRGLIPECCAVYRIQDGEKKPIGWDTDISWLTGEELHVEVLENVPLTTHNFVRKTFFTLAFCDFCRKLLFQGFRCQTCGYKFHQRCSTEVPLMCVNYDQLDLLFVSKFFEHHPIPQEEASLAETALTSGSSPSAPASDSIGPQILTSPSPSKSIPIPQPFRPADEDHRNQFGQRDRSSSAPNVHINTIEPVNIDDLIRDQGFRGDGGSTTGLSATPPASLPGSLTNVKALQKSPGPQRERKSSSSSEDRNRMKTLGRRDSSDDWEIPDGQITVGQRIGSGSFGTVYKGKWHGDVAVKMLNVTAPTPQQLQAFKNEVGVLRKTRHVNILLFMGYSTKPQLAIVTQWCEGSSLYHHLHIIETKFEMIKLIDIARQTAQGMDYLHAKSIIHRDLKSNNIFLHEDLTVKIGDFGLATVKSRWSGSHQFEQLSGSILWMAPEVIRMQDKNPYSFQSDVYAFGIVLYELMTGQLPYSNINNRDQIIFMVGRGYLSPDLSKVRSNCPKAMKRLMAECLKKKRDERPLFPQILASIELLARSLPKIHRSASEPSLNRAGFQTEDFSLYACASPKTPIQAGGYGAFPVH
# MARK4, sequence (Q96L34 whole entry): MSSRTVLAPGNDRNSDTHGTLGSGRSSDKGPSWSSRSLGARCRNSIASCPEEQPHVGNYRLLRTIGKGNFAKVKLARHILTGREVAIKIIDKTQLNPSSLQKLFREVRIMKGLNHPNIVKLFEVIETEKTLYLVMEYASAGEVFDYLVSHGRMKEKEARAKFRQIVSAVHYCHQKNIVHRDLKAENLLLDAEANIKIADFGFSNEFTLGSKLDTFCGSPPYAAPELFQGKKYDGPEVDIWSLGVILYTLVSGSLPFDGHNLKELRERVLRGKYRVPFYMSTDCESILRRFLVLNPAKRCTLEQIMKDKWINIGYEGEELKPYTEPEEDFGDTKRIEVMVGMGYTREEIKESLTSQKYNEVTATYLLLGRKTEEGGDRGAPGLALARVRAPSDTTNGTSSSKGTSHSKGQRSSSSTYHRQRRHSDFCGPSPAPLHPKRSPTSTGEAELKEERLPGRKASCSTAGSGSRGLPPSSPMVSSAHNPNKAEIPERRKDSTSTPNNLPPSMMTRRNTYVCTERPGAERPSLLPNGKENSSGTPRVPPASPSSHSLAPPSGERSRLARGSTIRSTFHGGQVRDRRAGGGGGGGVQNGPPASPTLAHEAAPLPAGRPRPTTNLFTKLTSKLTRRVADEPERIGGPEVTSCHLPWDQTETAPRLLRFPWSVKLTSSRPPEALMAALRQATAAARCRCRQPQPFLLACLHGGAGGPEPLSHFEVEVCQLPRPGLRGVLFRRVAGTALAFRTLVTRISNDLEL
# SRPK1, sequence (Q96SB4 whole entry): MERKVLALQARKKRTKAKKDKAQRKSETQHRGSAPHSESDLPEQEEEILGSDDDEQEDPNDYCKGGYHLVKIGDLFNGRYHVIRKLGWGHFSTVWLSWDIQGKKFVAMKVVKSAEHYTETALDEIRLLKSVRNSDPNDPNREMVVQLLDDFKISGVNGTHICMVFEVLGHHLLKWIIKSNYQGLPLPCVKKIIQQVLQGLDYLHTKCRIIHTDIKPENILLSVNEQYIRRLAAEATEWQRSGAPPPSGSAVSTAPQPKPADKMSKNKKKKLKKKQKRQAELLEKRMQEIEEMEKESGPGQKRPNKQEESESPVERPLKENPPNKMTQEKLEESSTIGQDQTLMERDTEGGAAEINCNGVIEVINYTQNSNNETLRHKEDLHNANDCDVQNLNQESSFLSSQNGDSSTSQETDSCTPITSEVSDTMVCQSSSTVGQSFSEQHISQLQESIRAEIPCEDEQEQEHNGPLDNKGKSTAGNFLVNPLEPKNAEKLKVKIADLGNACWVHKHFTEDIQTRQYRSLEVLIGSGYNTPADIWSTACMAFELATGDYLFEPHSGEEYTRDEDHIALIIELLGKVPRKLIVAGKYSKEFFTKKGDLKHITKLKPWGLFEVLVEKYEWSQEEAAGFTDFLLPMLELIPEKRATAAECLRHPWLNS
# CDC2, sequence (P06493 whole entry): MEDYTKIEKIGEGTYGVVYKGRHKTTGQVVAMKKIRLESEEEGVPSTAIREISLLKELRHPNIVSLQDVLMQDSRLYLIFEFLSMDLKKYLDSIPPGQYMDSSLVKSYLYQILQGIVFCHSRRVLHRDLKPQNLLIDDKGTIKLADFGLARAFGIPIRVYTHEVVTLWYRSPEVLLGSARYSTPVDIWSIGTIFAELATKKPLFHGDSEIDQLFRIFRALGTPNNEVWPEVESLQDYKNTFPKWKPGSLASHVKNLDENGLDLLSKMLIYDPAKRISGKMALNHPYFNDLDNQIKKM
smiles,measurement,setting,value
"Nc1ncc(-c2cccc3ncsc23)cc1-c1ccc2c(c1)CCNC2=O [Compound I-13, 6-(2-amino-5-(benzo[d]thiazol-7-yl)pyridin-3-yl)-3,4-dihydroisoquinolin-1(2H)-one]",IC50,STK3 (MST2),40 to 200 nM
same,inhibition at 10 µM,BRAF; read-out: % inhibition (range),0%
same,inhibition at 10 µM,BRAF; read-out: inhibition (10 μM),10.2%
same,inhibition at 10 µM,CDC2; read-out: % inhibition (range),0%
same,inhibition at 10 µM,CDC2; read-out: inhibition (10 μM),-15%
same,inhibition at 10 µM,CaMK2g; read-out: % inhibition (range),0%
same,inhibition at 10 µM,CaMK2g; read-out: inhibition (10 μM),-13.6%
same,inhibition at 10 µM,FER; read-out: % inhibition (range),0%
same,inhibition at 10 µM,FER; read-out: inhibition (10 μM),4.2%
same,inhibition at 10 µM,JAK3 domain2; read-out: % inhibition (range),0%
same,inhibition at 10 µM,JAK3 domain2; read-out: inhibition (10 μM),-12.8%
same,inhibition at 10 µM,LKB1; read-out: % inhibition (range),0%
same,inhibition at 10 µM,LKB1; read-out: inhibition (10 μM),4.3%
same,inhibition at 10 µM,MAP2K4; read-out: % inhibition (range),35 to 50%
same,inhibition at 10 µM,MAP2K4; read-out: inhibition (10 μM),48.2%
same,inhibition at 10 µM,MAP2K5; read-out: % inhibition (range),0%
same,inhibition at 10 µM,MAP2K5; read-out: inhibition (10 μM),13.4%
same,% inhibition (range),"MAP3K2, MAP3K3",0.0%
same,inhibition (10 μM),"MAP3K2, MAP3K3",0.2%
same,inhibition at 10 µM,MAP3K5; read-out: % inhibition (range),0%
same,inhibition at 10 µM,MAP3K5; read-out: inhibition (10 μM),25.6%
same,inhibition at 10 µM,MARK4; read-out: inhibition (10 μM),39.8%
same,inhibition at 10 µM,MLKL; read-out: % inhibition (range),0%
same,inhibition at 10 µM,MLKL; read-out: inhibition (10 μM),15.2%
same,inhibition at 10 µM,MSK1 domain1; read-out: % inhibition (range),0%
same,inhibition at 10 µM,MSK1 domain1; read-out: inhibition (10 μM),9.5%
same,% inhibition (range),"MST4, YSK1",0.0%
same,inhibition (10 μM),"MST4, YSK1",−17.0%
same,% inhibition (range),"NEK6, NEK7",0.0%
same,inhibition (10 μM),"NEK6, NEK7",−20.1%
same,% inhibition (range),"PI4KA, PI4KAP2",0.0%
same,inhibition (10 μM),"PI4KA, PI4KAP2",−16.1%
same,inhibition at 10 µM,PKN1; read-out: % inhibition (range),0%
same,inhibition at 10 µM,PKN1; read-out: inhibition (10 μM),19%
same,inhibition at 10 µM,PKR; read-out: % inhibition (range),0%
same,inhibition at 10 µM,PKR; read-out: inhibition (10 μM),-21.7%
same,inhibition at 10 µM,SLK; read-out: % inhibition (range),35 to 50%
same,inhibition at 10 µM,SLK; read-out: inhibition (10 μM),49.2%
same,inhibition at 10 µM,SRPK1; read-out: % inhibition (range),0%
same,inhibition at 10 µM,SRPK1; read-out: inhibition (10 μM),10.8%
same,inhibition at 10 µM,STLK3; read-out: % inhibition (range),0%
same,inhibition at 10 µM,STLK3; read-out: inhibition (10 μM),1.1%
same,inhibition at 10 µM,ULK1; read-out: % inhibition (range),0%
same,inhibition at 10 µM,ULK1; read-out: inhibition (10 μM),-23.4%
same,inhibition at 10 µM,ZAK; read-out: % inhibition (range),35 to 50%
same,inhibition at 10 µM,ZAK; read-out: inhibition (10 μM),44.9%
"CN(C1CC1)S(=O)(=O)c1ccc(-c2cnc(N)c(-c3ccc4c(c3)CCNC4=O)c2)c(F)c1 [Compound I-28, 4-(6-amino-5-(1-oxo-1,2,3,4-tetrahydroisoquinolin-6-yl)pyridin-3-yl)-N-cyclopropyl-3-fluoro-N-methylbenzenesulfonamide]",IC50,STK3 (MST2),< 40 nM
same,inhibition at 10 µM,BRAF; read-out: % inhibition (range),0%
same,inhibition at 10 µM,BRAF; read-out: inhibition (10 μM),-4.6%
same,inhibition at 10 µM,CDC2; read-out: % inhibition (range),0%
same,inhibition at 10 µM,CDC2; read-out: inhibition (10 μM),-26.5%
same,inhibition at 10 µM,CaMK2g; read-out: % inhibition (range),0%
same,inhibition at 10 µM,CaMK2g; read-out: inhibition (10 μM),-13%
same,inhibition at 10 µM,FER; read-out: % inhibition (range),0%
same,inhibition at 10 µM,FER; read-out: inhibition (10 μM),-3.9%
same,inhibition at 10 µM,JAK3 domain2; read-out: % inhibition (range),0%
same,inhibition at 10 µM,JAK3 domain2; read-out: inhibition (10 μM),15.2%
same,inhibition at 10 µM,LKB1; read-out: % inhibition (range),0%
same,inhibition at 10 µM,LKB1; read-out: inhibition (10 μM),-0.6%
same,inhibition at 10 µM,MAP2K4; read-out: % inhibition (range),0%
same,inhibition at 10 µM,MAP2K4; read-out: inhibition (10 μM),32.5%
same,inhibition at 10 µM,MAP2K5; read-out: % inhibition (range),50 to 75%
same,inhibition at 10 µM,MAP2K5; read-out: inhibition (10 μM),58%
same,% inhibition (range),"MAP3K2, MAP3K3",0.0%
same,inhibition (10 μM),"MAP3K2, MAP3K3",33.8%
same,inhibition at 10 µM,MAP3K5; read-out: % inhibition (range),0%
same,inhibition at 10 µM,MAP3K5; read-out: inhibition (10 μM),-6.2%
same,inhibition at 10 µM,MARK4; read-out: % inhibition (range),0%
same,inhibition at 10 µM,MARK4; read-out: inhibition (10 μM),23.1%
same,inhibition at 10 µM,MLKL; read-out: % inhibition (range),0%
same,inhibition at 10 µM,MLKL; read-out: inhibition (10 μM),23.9%
same,inhibition at 10 µM,MSK1 domain1; read-out: % inhibition (range),0%
same,inhibition at 10 µM,MSK1 domain1; read-out: inhibition (10 μM),5.4%
same,% inhibition (range),"MST4, YSK1",75-90%
same,inhibition (10 μM),"MST4, YSK1",76.7%
same,% inhibition (range),"NEK6, NEK7",0.0%
same,inhibition (10 μM),"NEK6, NEK7",−10.5%
same,% inhibition (range),"PI4KA, PI4KAP2",0.0%
same,inhibition (10 μM),"PI4KA, PI4KAP2",−13.2%
same,inhibition at 10 µM,PKN1; read-out: % inhibition (range),35 to 50%
same,inhibition at 10 µM,PKN1; read-out: inhibition (10 μM),40.5%
same,inhibition at 10 µM,PKR; read-out: % inhibition (range),0%
same,inhibition at 10 µM,PKR; read-out: inhibition (10 μM),-0.8%
same,inhibition at 10 µM,SLK; read-out: % inhibition (range),50 to 75%
same,inhibition at 10 µM,SLK; read-out: inhibition (10 μM),58.9%
same,inhibition at 10 µM,SRPK1; read-out: % inhibition (range),0%
same,inhibition at 10 µM,SRPK1; read-out: inhibition (10 μM),19.5%
same,inhibition at 10 µM,STLK3; read-out: % inhibition (range),0%
same,inhibition at 10 µM,STLK3; read-out: inhibition (10 μM),13.5%
same,inhibition at 10 µM,ULK1; read-out: % inhibition (range),0%
same,inhibition at 10 µM,ULK1; read-out: inhibition (10 μM),-54.6%
same,inhibition at 10 µM,ZAK; read-out: % inhibition (range),0%
same,inhibition at 10 µM,ZAK; read-out: inhibition (10 μM),18.2%
